Source: patent US7468388B2, “Dimeric compounds and their use as anti-viral agents” (priority 2001, dated 2008)
In brackets after ≈: the same amount, converted by molar mass.

Experiments:
[1] = system: Influenza A/Sydney/5/97; assay: Cytopathic effect (CPE) assay in MDCK cells, MTT readout; assay type: cell-based; conditions: concentration that inhibited CPE by 50%, up to 72 hours
[2] = system: A/W SN/33 BVLV09 (H1N1); assay: Plaque reduction assay (PRA) in MDCK cells; assay type: cell-based, influenza A (H1N1); conditions: reduces plaque numbers by 50%
[3] = system: A/New Caledonia/20/99 BVLV008 (H1N1); assay: Plaque reduction assay (PRA) in MDCK cells; assay type: cell-based; conditions: reduces plaque numbers by 50%
[4] = system: A/Panama/2007/99 BVLV008 (H3N2); assay: Plaque reduction assay (PRA) in MDCK cells; assay type: cell-based; conditions: reduces plaque numbers by 50%
[5] = system: B/Harbin/7/95 BVLV008; assay: Plaque reduction assay (PRA) in MDCK cells; assay type: cell-based; conditions: Influenza B virus, read-out: EC50 PRA B/Harb*
[6] = system: B/Yamaneshl/166/98 BVLV007; assay: Plaque reduction assay (PRA) in MDCK cells; assay type: cell-based; conditions: Influenza B virus, read-out: EC50 PRA B/Yam*, reduces plaque numbers by 50%, MDCK cells

| Compound | ID50 A/Sydney/5/97+ [1] | EC50 PRA A/W SN* [2] | EC50 PRA A/New* [3] | EC50 PRA A/Pan* [4] | EC50 [5] | EC50 [6] |
| --- | --- | --- | --- | --- | --- | --- |
| CC(=O)N[C@@H]1C(N=C(N)N)C=C(C(=O)O)O[C@H]1[C@H](O)[C@H](O)CO (single isomer, unassigned) [Compound A, 4-guanidino-2-deoxy-2,3-dehydro-N-acetylneuraminic acid] | 0.023 ± 0.024 µg/mL (≈ 0.0692 µM) | > 0.1 µg/mL | 0.00023 µg/mL (≈ 0.000692 µM) | 0.003 µg/mL (≈ 0.00903 µM) | 0.00019 µg/mL (≈ 0.000572 µM) |  |
| NC12CC3CC(CC(C3)C1)C2 [Amantadine] |  |  |  |  |  | 2.08 µg/mL (≈ 13.8 µM) |
